Columns and labels:
[1] = system: HUVECs; experiment: In vitro Matrigel angiogenesis assay (tube formation); type: cell-based, human; details: for Effect on the stimulatory effect of TMD23 on HUVEC tube formation: IgG 10 μg/mL, inhibitors 10 μM
Procedure: (§1) Growth-factor-reduced Matrigel (BD Biosciences) was thawed at 4° C. A total of 200 μL Matrigel was added to wells of a 48-well plate and polymerized 30 min at 37° C. Two hundred μL cell suspension containing various concentrations of VEGF, TMD23, or TMD23 in the presence of polyclonal rabbit anti-TMD23 antibody (10 μg/mL) or various signaling pathway inhibitors were plated onto Matrigel-coated wells at a density of 2.4×10^4 cells/well in M199 containing 10% FBS for 24 h at 37° C. in a 5% CO2 humidified atmosphere. Each concentration was tested in triplicate in the same plate, with wells photographed using a Leica camera (40× magnification). Tube length was quantified by measuring tubes in five randomly chosen fields from each well using MetaMorph software. Experiments were repeated at least three times.
as §1, with “5° k” for “5%”

[2] = system: HUVECs; experiment: Chemotaxis assay (Transwell); type: cell-based, human; details: inhibitor or antibody present with TMD23
Procedure: (§2) The chemotactic motility of HUVECs was assayed using Transwell (Costar) with 6.5-mm diameter polycarbonate filters (8-μm pore size). The lower filter surface was coated with 10 μg gelatin (Sigma-Aldrich). Various concentrations of TMD23 in the absence or presence of 10 μg/mL polyclonal rabbit anti-TMD23 antibody or 10 ng/mL vascular endothelial growth factor (VEGF) (R & D Systems, Inc.) in M199 were placed in the lower wells. One hundred mL cell suspension containing 1×10^5 cells was loaded into each of upper well. The chamber was incubated at 37° C. for 4 h. Cells were fixed with methanol and stained with 4′,6′-diamidino-2-phenylindole (DAPI). Chemotaxis was quantified with optical microscopy (Leica) at 100× magnification using MetaMorph imaging software (Universal Imaging Corporation) by counting the cells that migrated to the filter's lower side. Five random fields in each well were counted. Each sample was assayed in triplicate, and assays were repeated three times. To determine the role of extracellular signal-regulated kinase 1/2 (ERK1/2), p38 mitogen-activated protein kinase (MAPK), and phosphatidylinositol 3-kinase (PI3 kinase)-protein kinase B/Akt (Akt) in TMD23-mediated cell migration, assays were performed in the presence of U0126, a MAPK/ERK kinase (MEK) inhibitor, SB 203580, a p38 MAPK inhibitor, and LY 294002, a PI3 kinase inhibitor. Cell viability as determined by trypan blue staining was not altered by treatment. 00126 was purchased from Promega, with SB 203580 and LY 294002 from Calbiochem.
as §2, with “hundred μL” for “hundred mL”, “MAPK/ERK kinase-(MEK)” for “MAPK/ERK kinase (MEK)”, “treatment. U0126” for “treatment. 00126”

[3] = system: PAI activity in conditioned media of HUVECs; experiment: Plasminogen activator inhibitor (PAI) activity assay; type: cell-based, human; details: 12 h; 100 or 1000 ng/mL TMD23, 70 ng/mL PMA, 10 ng/mL VEGF
Procedure: (§3) HUVECs were seeded at 80% confluence on 100-mm dishes in M199 medium. After 24 h, cells were rinsed with serum-free M199 twice and incubated in serum-free M199 with various concentrations of TMD23, VEGF (10 ng/mL), or PMA (70 ng/mL) for 12 h. The conditioned medium containing […] secreted proteins was analyzed by gelatin- and casein-based zymographies. The digested area appeared clear on a blue background, indicating the location of matrix metalloproteinase (MMP) activity. To further verify MMP caseinolytic activity, the casein-containing gel was incubated with incubation buffer containing 10 mM EDTA, an inhibitor of MMPs, to observe disappearance of the clear band. Plasminogen activator inhibitor (PAI) activity was measured by titrating samples with increasing amounts of tissue-type plasminogen activator (t-PA) (Boehringer Ingelheim) into a fixed volume of endothelial-cell-conditioned media.
as §3, with “zymographies. Lee O H, et al., Identification of angiogenic properties of insulin-like growth factor II in in vitro angiogenesis models. Brit J. Cancer. 2000; 82:385-391.” for “zymographies.”, “media. Shi G Y., et al., Plasmin and the regulation of tissue-type plasminogen activator biosynthesis in human endothelial cells. […]” for “media.”

[4] = system: Matrigel plugs in FVB mice; experiment: Murine angiogenesis assay (Matrigel plug); type: in vivo
[5] = system: Matrigel plugs in FVB mice; experiment: Murine angiogenesis assay (Matrigel plug); type: in vivo; details: for Appearance of Matrigel plugs, with heparin: day 4, plus heparin (30 U), TMD23 10, 100, or 1,000 ng, bFGF 250 ng, VEGF 50 ng; for Magnitude of angiogenic reaction with heparin versus without: gels supplemented with both angiogenic factor and heparin
Procedure: To assess angiogenic effects in vivo, growth-factor-reduced liquid Matrigel (0.5 mL) containing heparin (60 U/mL) and various concentrations of TMD23, bFGF or VEGF was subcutaneously injected into FVB mice near the abdominal midline. Matrigel with PBS plus heparin served as the negative control, with bFGF and VEGF plus heparin as the positive control. Four days after injection, mice were sacrificed and Matrigel plugs were surgically removed. For macroscopic analysis of angiogenesis, hemoglobin content in Matrigel was measured using Drabkin reagent 525 (Sigma-Aldrich). For histological analysis, rat anti-mouse CD31 (PECAM-1, platelet endothelial cell adhesion molecule-1) antibody (Pharmingen) was used. The same specimens were used for hematoxylin and eosin (H&E) staining.

[6] = system: human melanoma A2058 cells in Matrigel; experiment: Effect of TMD23 on tumor neoangiogenesis; type: in vivo, athymic nude mice; details: 18 days
Procedure: To assess TMD23 effects on tumor neoangiogenesis, 1×10^6 human melanoma A2058 cells (ATCC® CRL-11147) were mixed with Matrigel (0.5 mL) containing heparin (60 U/mL) and various concentrations of TMD23 and subcutaneously injected into athymic nude mice. Matrigel plugs were harvested after 18 days and frozen in liquid nitrogen. Blood vessels were detected by immunohistochemistry using anti-CD31 antibody as described above. Microvessel density (MVD) was calculated by counting six highly vascularized fields in each section (200× magnification; MetaMorph software).

[7] = system: MMP-1, MMP-2, MMP-3, and MMP-9 in HUVEC conditioned medium; experiment: Gelatin and casein zymographies; type: cell-based, human; details: 10 mM EDTA in incubation buffer
Procedure: as §3
as §3, with “zymographies. Lee O H, et al., Identification of angiogenic properties of insulin-like growth factor II in in vitro angiogenesis models. Brit J. Cancer. 2000; 82:385-391.” for “zymographies.”, “media. Shi G Y., et al., Plasmin and the regulation of tissue-type plasminogen activator biosynthesis in human endothelial cells. […]” for “media.”

[8] = system: human umbilical vein endothelial cells (HUVECs); experiment: Cell proliferation assay (BrdU incorporation); type: cell-based; details: BrdU incorporation, FIG. 2A
Procedure: (§4) To evaluate the effect of TMD proteins on DNA synthesis in human umbilical vein endothelial cells (HUVECs), we performed a 5-bromo-2′-deoxyuridine (BrdU) incorporation assay with a commercial quantification kit (Roche Diagnostic GmbH) and manufacturer's protocol. Mitogenic effects induced by TMD proteins were also determined in the presence of polyclonal rabbit anti-TMD23 antibody (prepared by GlycoNex, Inc., Taiwan) that was purified by protein G-Sepharose column (Amersham Pharmacia Biotech AB).
as §4, with “(HUVECs),” for “(HUVECs), we performed”, “assay were performed” for “assay”

COC(=O)[C@@H](N)CCCNC(=N)N[N+](=O)[O-] [L-NAME, N^G-nitro-L-arginine methyl ester]
Effect on the stimulatory effect of TMD23 on HUVEC tube formation [1]: blocked

C[S+]([O-])c1ccc(-c2nc(-c3ccncc3)c(-c3ccc(F)cc3)[nH]2)cc1 (stereo not shown) [SB 203580, reference compound]
Effect on the stimulatory effect of TMD23 on HUVEC tube formation [1]: blocked | Effect on the stimulatory effect of TMD23 on HUVEC migration [2]: blocked

vascular endothelial growth factor [VEGF, reference compound]
PAI activity in conditioned media of HUVECs [3]: decreased significantly | HUVEC tube formation on Matrigel ([1]; 24 h, VEGF 10 ng/mL, TMD23 5 to 250 ng/mL): formed elongated capillary-like structures, with complete networks | Appearance of Matrigel plugs, without heparin [4]: pale | Appearance of Matrigel plugs, with heparin [5]: bright red | Magnitude of angiogenic reaction with heparin versus without [5]: considerably greater | Hemoglobin content of recovered Matrigel plugs ([5]; plus heparin, compared with controls): significantly increased

CCCCCCCCCCCCCC(=O)O[C@@H]1[C@@H](C)[C@@]2(O)[C@@H](C=C(CO)C[C@]3(O)C(=O)C(C)=C[C@@H]23)[C@@H]2C(C)(C)[C@]12OC(C)=O [PMA]
PAI activity in conditioned media of HUVECs [3]: decreased significantly

basic fibroblast growth factor [bFGF, reference compound]
Blood vessels in Matrigel plugs (CD31 staining) [6]: significantly more blood vessels | Tumor size developed by Matrigel plugs containing A2058 cells ([6]; compared with A2058 cells alone): bigger | Appearance of Matrigel plugs, without heparin [4]: pale | Appearance of Matrigel plugs, with heparin [5]: bright red | Magnitude of angiogenic reaction with heparin versus without [5]: considerably greater

O=C(O)CN(CCN(CC(=O)O)CC(=O)O)CC(=O)O [EDTA, reference compound]
Effect on the caseinolytic MMP-3 band [7]: blocked specifically

N#CC(=C(/N)Sc1ccccc1N)/C(C#N)=C(\N)Sc1ccccc1N [U0126, reference compound]
Effect on the stimulatory effect of TMD23 on HUVEC tube formation [1]: blocked | Effect on the stimulatory effect of TMD23 on HUVEC migration [2]: blocked

TMD2: Recombinant human thrombomodulin fragment, amino acids Ala242-Cys480 of SEQ ID NO: 2, containing six EGF-like structures (D2)
DNA synthesis in HUVECs [8]: stimulated DNA synthesis

From patent publication US8293231B2, “Methods and compositions for treating ischemia” (Blue Blood Biotech Corp., priority 2005, dated 2012)
